# Data reported in publication PMC5608804, “Stepwise Evolution Improves Identification of Diverse Peptides Binding to a Protein Target” (Scientific Reports, 2017).
# Target: T1, streptavidin (Streptomyces avidinii, UniProt P22629)
# T1 construct: purchased GE Healthcare (Little Chalfont, UK)
# Assay: Cy5-streptavidin binding on HotSpot discovery array, 5-mer L-peptide library
# Settings: 5-mer L-peptide library array, Cy5-streptavidin; from average of three arrays
# Outline: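 Array of 2,476,099 5-mer peptides (19 amino acids, no cysteine) with Gly-Ser linkers, probed overnight at 4 °C with 0.5 µg/ml Cy5-streptavidin in Tris pH 7.4 buffer containing casein or BSA plus Tween-20. Cy5 fluorescence read at 635 nm; peptides selected by signal-to-background >4 across three arrays.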
# T1 sequence (P22629 25-183): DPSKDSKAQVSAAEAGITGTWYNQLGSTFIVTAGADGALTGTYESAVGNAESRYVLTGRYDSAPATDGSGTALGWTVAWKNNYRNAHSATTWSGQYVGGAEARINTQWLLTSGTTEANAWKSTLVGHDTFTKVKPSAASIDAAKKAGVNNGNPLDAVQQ
row,Substance,S/B (signal to background ratio)
1,SGHPQ,128.5
2,SHHPQ,155.1
3,SHPMS,25.8
4,SHPQA,137.0
5,SHPQF,132.4
6,SHPQM,37.7
7,SHPQN,135.7
8,SHPQQ,41.4
9,SHPQR,26.8
10,SHPQY,47.6
11,SLHPM,46.4
12,SLHPQ,133.4
13,SMHPQ,142.0
14,SNHPM,54.1
15,SNHPQ,144.9
16,SPHPQ,145.4
17,SQHPM,50.2
18,SRHPQ,154.4
19,SSHPM,50.5
20,SSHPQ,134.8
21,STHPM,48.2
22,STHPQ,139.4
23,SWHPQ,171.5

row,Substance,S/B (signal to background ratio)
1,TAHPQ,120.0
2,TEHPQ,57.0
3,TFHPM,52.6
4,TFHPQ,156.9
5,TGHPM,53.4
6,TGHPQ,128.8
7,THPMG,43.8
8,THPQA,140.8
9,THPQG,125.0
10,THPQH,42.7
11,THPQN,136.1
12,THPQQ,42.4
13,THPQY,30.1
14,TMHPM,25.5
15,TMHPQ,120.6
16,TNHPM,57.8
17,TNHPQ,135.8
18,TPHPM,44.1
19,TPHPQ,142.6
20,TQHPQ,120.0
21,TRHPM,53.7
22,TRHPQ,156.2
23,TSHPQ,122.6

row,Substance,S/B (signal to background ratio)
1,TTHPM,29.8
2,TYHPM,50.6
3,TYHPQ,168.9
4,VDHPM,26.0
5,VEHPQ,55.4
6,VFHPM,53.0
7,VFHPQ,152.8
8,VHHPM,54.5
9,VHHPQ,141.1
10,VHPQA,131.8
11,VHPQF,135.2
12,VHPQH,31.7
13,VHPQN,153.6
14,VHPQQ,30.0
15,VIHPM,20.7
16,VKHPM,19.5
17,VLHPM,32.2
18,VMHPQ,127.9
19,VNHPQ,137.6
20,VPHPM,45.9
21,VRHPQ,151.4
22,VSHPQ,129.8
23,VWHPQ,171.7

row,Substance,S/B (signal to background ratio)
1,VYHPQ,168.1
2,WAHPM,135.8
3,WAHPQ,207.5
4,WFHPQ,178.0
5,WGHPQ,216.3
6,WHHPM,129.3
7,WHHPQ,200.9
8,WHPMF,27.4
9,WHPMM,43.4
10,WHPMV,49.4
11,WHPQA,172.2
12,WHPQF,132.3
13,WHPQG,184.5
14,WHPQI,41.5
15,WHPQK,42.1
16,WHPQN,176.6
17,WHPQS,129.8
18,WHPQT,54.9
19,WHPQV,137.6
20,WHPQY,53.1
21,WIHPQ,166.2
22,WKHPQ,175.0
23,WLHPQ,190.9

row,Substance,S/B (signal to background ratio)
1,WMHPQ,194.6
2,WNHPQ,215.8
3,WPHPQ,191.6
4,WQHPM,142.1
5,WQHPQ,199.1
6,WRHPM,120.0
7,WRHPQ,235.3
8,WSHPM,129.1
9,WSHPQ,215.6
10,WTHPQ,181.7
11,WVHPQ,169.6
12,WWHPM,52.3
13,YAHPQ,186.2
14,YFHPQ,183.4
15,YGHPQ,210.5
16,YHHPQ,183.0
17,YHPMM,31.1
18,YHPMN,26.1
19,YHPMV,20.3
20,YHPQA,168.4
21,YHPQG,153.3
22,YHPQK,19.8

# Same assay, conditions: 5-mer L-peptide library array, Cy5-streptavidin; from the average of three arrays
row,Substance,S/B (signal to background ratio)
1,SHPMA,60.4
2,SHPQG,117.3
3,SHPQV,98.7
4,SIHPQ,118.3
5,SKHPQ,66.3
6,SRHPM,57.8
7,SVHPQ,116.5
8,THHPM,58.0
9,THPMA,67.4
10,THPQS,70.8
11,THPQV,88.9
12,TIHPQ,92.6
13,TKHPQ,61.5
14,TLHPQ,111.0
15,TVHPQ,96.5
16,TWHPM,59.8
17,VAHPQ,118.6
18,VHPQG,101.6
19,VHPQS,73.9
20,VHPQV,61.3
21,VIHPQ,83.6
22,VKHPQ,64.6
23,VLHPQ,115.6
24,VQHPQ,114.0
25,VRHPM,64.0

row,Substance,S/B (signal to background ratio)
1,VTHPQ,113.4
2,VVHPQ,79.7
3,VWHPM,71.2
4,WEHPM,69.6
5,WEHPQ,98.3
6,WFHPM,87.4
7,WHPMN,67.3
8,WHPQH,79.3
9,WHPQM,100.1
10,WKHPM,66.5
11,WMHPM,117.2
12,WPHPM,95.9
13,WTHPM,114.6
14,WVHPM,78.5
15,WWHPQ,111.4
16,YAHPM,87.4
17,YDHPM,61.8
18,YDHPQ,116.2
19,YEHPQ,103.2
20,YFHPM,69.8
21,YGHPM,108.1
22,YHHPM,85.0
23,YHPMA,80.6
24,YHPQF,105.0
25,YHPQH,62.5

# Same assay, conditions: 5-mer L-peptide library, from the average of three arrays
row,Substance,S/B (signal to background ratio)
1,SHPQL,4.4
2,THPMK,4.1
3,THPQL,4.2
4,WDAWE [L-amino acid 5-mer array peptide],4.0
5,WGHPH,4.1
6,WHGPQ,4.5
7,WHKPQ,4.7
8,WHMPQ,4.6
9,WHPMW,4.9
10,WHPNR,5.2
11,WHVPQ,4.3
12,WRHPH,4.2
13,WYHHP,5.0
14,YHFPQ,4.9
15,YHPMI,4.8
16,YHPPQ,4.7

# Same assay, conditions: average of three arrays, L-peptide 5-mer library
row,Substance,S/B (signal to background ratio)
1,TPSFG [L-amino acid 5-mer array peptide],6.3
2,TPSFH [L-amino acid 5-mer array peptide],6.7
3,WDAWE [L-amino acid 5-mer array peptide],4.0
4,WPPSL [L-amino acid 5-mer array peptide],7.7
5,YHETH [L-amino acid 5-mer array peptide],6.0

# Same assay, conditions: signal to background ratio; 5-mer L-peptide library array, Cy5-streptavidin
row,Substance,S/B
1,SHPMY,11.0
2,THPMH,9.5
3,THPMM,11.1
4,THPMR,8.7
5,THPMY,10.9
6,THPQK,14.5
7,THPQT,11.0
8,TPSFG [L-amino acid 5-mer array peptide],6.3
9,TPSFH [L-amino acid 5-mer array peptide],6.7
10,VHPMF,9.9
11,VHPMN,13.1
12,VHPMQ,9.6
13,VVHPM,15.5
14,WHPDW,5.3
15,WHPMK,14.5
16,WHPMT,16.9
17,WHPPQ,9.3
18,WHPQL,14.5
19,WHPQP,10.7
20,WPPSL [L-amino acid 5-mer array peptide],7.7
21,YHETH [L-amino acid 5-mer array peptide],6.0
22,YHPMF,13.4
23,YHPMY,12.0
24,YHPQI,14.3
